{
  "source": "patent US20100172982A1",
  "about": "“SUSTAINED RELEASE FORMULATIONS OF DIVALPROEX SODIUM” (SUN PHARMACEUTICAL INDUSTRIES LIMITED, priority 2007, published 2010)",
  "origin": "cited, not measured here",
  "settings": "children",
  "data": [
    {"smiles": "CCCC(CCC)C(=O)O", "note": "[valproic acid, 2-propylpenatnoic acid]", "values": [
      {"measurement": "elimination half-life", "value": "four and fourteen"}
    ]}
  ]
}
